PMC10683025, “Discovery of a Hydroxylamine-Based Brain-Penetrant EGFR Inhibitor for Metastatic Non-Small-Cell Lung Cancer” (Journal of Medicinal Chemistry, 2023)

Columns and labels:
[1] = target: T1, AKT2 (Homo sapiens, UniProt P31751); assay: KINOMEScan; assay type: binding; settings: AKT2, 1 µM; read-out: Percent Control
T1 construct: purchased Eurofins DiscoverX (KINOMEscan)
Text: (§3) Percent control was mapped onto the kinome tree using TREEspot.

[2] = target: CYP2D6 (Homo sapiens, UniProt P10635); assay: CYP2D6 time-dependent inhibition in primary human hepatocytes; settings: for Inhibition percentage(%) at Top conc.: human hepatocytes; for IC50 at 5 min: human, primary human hepatocytes, probe dextromethorphan (40 μM), O-demethylation
Sequence of CYP2D6 (P10635 whole entry): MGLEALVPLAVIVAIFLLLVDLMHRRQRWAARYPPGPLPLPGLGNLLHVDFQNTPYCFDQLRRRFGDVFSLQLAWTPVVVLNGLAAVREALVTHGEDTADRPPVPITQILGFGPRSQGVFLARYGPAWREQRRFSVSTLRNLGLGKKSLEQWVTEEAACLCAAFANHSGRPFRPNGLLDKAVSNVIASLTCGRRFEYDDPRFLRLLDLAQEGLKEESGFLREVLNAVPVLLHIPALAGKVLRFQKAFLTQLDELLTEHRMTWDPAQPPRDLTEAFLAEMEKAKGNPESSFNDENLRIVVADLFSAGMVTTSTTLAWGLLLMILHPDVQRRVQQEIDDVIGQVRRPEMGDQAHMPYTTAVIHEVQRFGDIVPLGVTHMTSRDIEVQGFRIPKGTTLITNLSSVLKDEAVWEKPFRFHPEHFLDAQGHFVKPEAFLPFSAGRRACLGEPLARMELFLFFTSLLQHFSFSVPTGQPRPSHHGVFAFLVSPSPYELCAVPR

[3] = target: T2, ACVR1 (Homo sapiens, UniProt Q04771); assay: KINOMEScan; assay type: binding; settings: ACVR1, 1 µM; read-out: Percent Control
T2 construct: purchased Eurofins DiscoverX
Text: as §3

[4] = target: T3, ASK2 (Homo sapiens, UniProt O95382); assay: KINOMEScan; assay type: binding; settings: ASK2, 1 µM; read-out: Percent Control
T3 construct: purchased Eurofins DiscoverX (KINOMEscan)

[5] = Pharmacokinetic study; assay type: in vivo, BALB/c nude mice
Procedure: (§1) Animal experiments were performed at Pharmaron, Inc. and animal use was approved by Pharmaron’s Institutional Animal Care and Use Committee (IACUC) in Pharmaron (Pharmaron IACUC, Protocol #PK-M-07182022, #PK-R-06012022, and #ON-CELL-XEN-06012022) following the guidance of AAALAC. Six- to eight-week-old male Sprague-Dawley rats (approximately 200–300 g) obtained from Si Bei Fu Laboratory Animal Technology Co., six- to eight-week-old male CD1 mice (approximately 20–30 g) obtained from Si Bei Fu Laboratory Animal Technology Co., and six- to eight-week-old female BALB/c nude mice (approximately 20–30 g) obtained from Si Bei Fu Laboratory Animal Technology Co., were used in the pharmacokinetic studies. Six- to eight-week-old female BALB/c nude mice (approximately 18–22 g) obtained from Beijing Anikeeper Biotech Co., Ltd. were used in the intracranial PDX study. Animals were housed at 20–25 °C with humidity ranging from 40 to 70% relative humidity, were exposed to 12 h light and dark cycles, and were supplied with food and water ab libitum.
Approximately 0.03 mL of blood was collected from the dorsal metatarsal vein (in the case of CD1 mice), 0.03 mL of blood from the orbit vein (in the case of BALB/c nude mice), or 0.2 mL of blood from the jugular vein (in the case of Sprague-Dawley rats) at each time point. Blood at each sampling point was transferred into a plastic micro centrifuge tube containing K2-EDTA, and collection tubes with blood samples and anticoagulant were inverted several times for proper mixing of the tube contents and placed on ice prior to centrifugation for plasma. Blood samples were centrifuged at 4 °C, 4000g for 5 min to obtain plasma. Samples were stored in a freezer at −75 °C prior to analysis. Concentrations of test articles in the plasma samples were determined using LC-MS/MS and WinNonlin 8.3 (Phoenix) was used for pharmacokinetic calculations. The values obtained were plotted on GraphPad Prism software and are presented as mean ± SD.

[6] = target: T4, AURKC (Homo sapiens, UniProt Q9UQB9); assay: KINOMEScan; assay type: binding; settings: read-out: Percent Control
T4 construct: purchased Eurofins DiscoverX (KINOMEscan)

[7] = system: luciferase-tagged HCC827 cells implanted into the brains; assay: Intracranial PDX model; assay type: in vivo, BALB/c nude mice; settings: 10 mg/kg PO b.i.d.
Procedure: as §1
HCC827 cells stably expressing luciferase (HCC827-luc) were injected intracranially. Briefly, 3 × 10^5 HCC827-luc tumor cells suspended in 2 μL of RPMI1640 medium were injected into the right forebrain of anesthetized mice (anesthetic: intramuscular injection of ZoletlTM 50 (Virbac S.A)). Mice were imaged biweekly using IVIS Lumina III (PerkinElmer). Images were acquired 10 min post intraperitoneal (IP) injection with 15 mg/mL (at 5 μL/g body weight) of D-luciferin in anesthetized mice (anesthetic: 1–2% isoflurane inhalation). On day 20 postcellular inoculation, mice were randomized into 2 treatment groups (n = 10 mice per group): (1) 1% methylcellulose as vehicle control and (2) 9 (10 mg/kg) (formulation: 1% methylcellulose), PO, b.i.d. (twice daily) dosing (12 h intervals) × 7 days for 21 days. Body weights of all mice were measured biweekly throughout the study and BW change, expressed in % was calculated using the following formula: [drawing 5] where BWDay X is the BW on a given day and BWDay 0 is BW on day 0 (initiation of treatment).

[8] = target: T5, DRAK1 (Homo sapiens, UniProt Q9UEE5); assay: KINOMEScan KdELECT Kd determination; assay type: binding; settings: read-out: Kinase Kd
T5 construct: purchased Eurofins DiscoverX (contract assay)
T5 sequence (Q9UEE5 1-414): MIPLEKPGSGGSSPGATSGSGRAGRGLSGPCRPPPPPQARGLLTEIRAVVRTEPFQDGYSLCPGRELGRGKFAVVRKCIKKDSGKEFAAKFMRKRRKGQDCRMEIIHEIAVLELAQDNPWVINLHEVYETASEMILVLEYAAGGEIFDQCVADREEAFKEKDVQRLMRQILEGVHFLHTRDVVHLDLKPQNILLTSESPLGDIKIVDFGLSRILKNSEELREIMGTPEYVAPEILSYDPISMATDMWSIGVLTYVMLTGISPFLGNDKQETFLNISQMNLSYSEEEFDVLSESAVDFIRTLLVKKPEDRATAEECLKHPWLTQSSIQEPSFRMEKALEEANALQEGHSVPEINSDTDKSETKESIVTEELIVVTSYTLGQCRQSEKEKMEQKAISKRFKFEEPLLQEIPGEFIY
Procedure: (§2) In vitro kinase activity (inhibitor binding constants (Kd) and biochemical inhibition (IC50’s)) were assessed by Eurofins DiscoverX (Kd determinations) and Eurofins Cerep (biochemical IC50 determinations).

[9] = target: T6, BCR-ABLwt (Phos.) (Homo sapiens, UniProt P00519); assay: KINOMEScan KdELECT Kd determination; assay type: binding; settings: read-out: Kinase Kd
T6 construct: purchased Eurofins DiscoverX (contract assay)
Procedure: as §2

[10] = target: T7, BMPR2 (Homo sapiens, UniProt Q13873); assay: KINOMEScan; assay type: binding; settings: BMPR2, 1 µM; read-out: Percent Control
T7 construct: purchased Eurofins DiscoverX (KINOMEscan)
Text: as §3

[11] = target: T8, WNK2 (Homo sapiens, UniProt Q9Y3S1); assay: KINOMEScan; assay type: binding; settings: WNK2, 1 µM; read-out: Percent Control
T8 construct: purchased Eurofins DiscoverX
T8 sequence (Q9Y3S1 whole entry): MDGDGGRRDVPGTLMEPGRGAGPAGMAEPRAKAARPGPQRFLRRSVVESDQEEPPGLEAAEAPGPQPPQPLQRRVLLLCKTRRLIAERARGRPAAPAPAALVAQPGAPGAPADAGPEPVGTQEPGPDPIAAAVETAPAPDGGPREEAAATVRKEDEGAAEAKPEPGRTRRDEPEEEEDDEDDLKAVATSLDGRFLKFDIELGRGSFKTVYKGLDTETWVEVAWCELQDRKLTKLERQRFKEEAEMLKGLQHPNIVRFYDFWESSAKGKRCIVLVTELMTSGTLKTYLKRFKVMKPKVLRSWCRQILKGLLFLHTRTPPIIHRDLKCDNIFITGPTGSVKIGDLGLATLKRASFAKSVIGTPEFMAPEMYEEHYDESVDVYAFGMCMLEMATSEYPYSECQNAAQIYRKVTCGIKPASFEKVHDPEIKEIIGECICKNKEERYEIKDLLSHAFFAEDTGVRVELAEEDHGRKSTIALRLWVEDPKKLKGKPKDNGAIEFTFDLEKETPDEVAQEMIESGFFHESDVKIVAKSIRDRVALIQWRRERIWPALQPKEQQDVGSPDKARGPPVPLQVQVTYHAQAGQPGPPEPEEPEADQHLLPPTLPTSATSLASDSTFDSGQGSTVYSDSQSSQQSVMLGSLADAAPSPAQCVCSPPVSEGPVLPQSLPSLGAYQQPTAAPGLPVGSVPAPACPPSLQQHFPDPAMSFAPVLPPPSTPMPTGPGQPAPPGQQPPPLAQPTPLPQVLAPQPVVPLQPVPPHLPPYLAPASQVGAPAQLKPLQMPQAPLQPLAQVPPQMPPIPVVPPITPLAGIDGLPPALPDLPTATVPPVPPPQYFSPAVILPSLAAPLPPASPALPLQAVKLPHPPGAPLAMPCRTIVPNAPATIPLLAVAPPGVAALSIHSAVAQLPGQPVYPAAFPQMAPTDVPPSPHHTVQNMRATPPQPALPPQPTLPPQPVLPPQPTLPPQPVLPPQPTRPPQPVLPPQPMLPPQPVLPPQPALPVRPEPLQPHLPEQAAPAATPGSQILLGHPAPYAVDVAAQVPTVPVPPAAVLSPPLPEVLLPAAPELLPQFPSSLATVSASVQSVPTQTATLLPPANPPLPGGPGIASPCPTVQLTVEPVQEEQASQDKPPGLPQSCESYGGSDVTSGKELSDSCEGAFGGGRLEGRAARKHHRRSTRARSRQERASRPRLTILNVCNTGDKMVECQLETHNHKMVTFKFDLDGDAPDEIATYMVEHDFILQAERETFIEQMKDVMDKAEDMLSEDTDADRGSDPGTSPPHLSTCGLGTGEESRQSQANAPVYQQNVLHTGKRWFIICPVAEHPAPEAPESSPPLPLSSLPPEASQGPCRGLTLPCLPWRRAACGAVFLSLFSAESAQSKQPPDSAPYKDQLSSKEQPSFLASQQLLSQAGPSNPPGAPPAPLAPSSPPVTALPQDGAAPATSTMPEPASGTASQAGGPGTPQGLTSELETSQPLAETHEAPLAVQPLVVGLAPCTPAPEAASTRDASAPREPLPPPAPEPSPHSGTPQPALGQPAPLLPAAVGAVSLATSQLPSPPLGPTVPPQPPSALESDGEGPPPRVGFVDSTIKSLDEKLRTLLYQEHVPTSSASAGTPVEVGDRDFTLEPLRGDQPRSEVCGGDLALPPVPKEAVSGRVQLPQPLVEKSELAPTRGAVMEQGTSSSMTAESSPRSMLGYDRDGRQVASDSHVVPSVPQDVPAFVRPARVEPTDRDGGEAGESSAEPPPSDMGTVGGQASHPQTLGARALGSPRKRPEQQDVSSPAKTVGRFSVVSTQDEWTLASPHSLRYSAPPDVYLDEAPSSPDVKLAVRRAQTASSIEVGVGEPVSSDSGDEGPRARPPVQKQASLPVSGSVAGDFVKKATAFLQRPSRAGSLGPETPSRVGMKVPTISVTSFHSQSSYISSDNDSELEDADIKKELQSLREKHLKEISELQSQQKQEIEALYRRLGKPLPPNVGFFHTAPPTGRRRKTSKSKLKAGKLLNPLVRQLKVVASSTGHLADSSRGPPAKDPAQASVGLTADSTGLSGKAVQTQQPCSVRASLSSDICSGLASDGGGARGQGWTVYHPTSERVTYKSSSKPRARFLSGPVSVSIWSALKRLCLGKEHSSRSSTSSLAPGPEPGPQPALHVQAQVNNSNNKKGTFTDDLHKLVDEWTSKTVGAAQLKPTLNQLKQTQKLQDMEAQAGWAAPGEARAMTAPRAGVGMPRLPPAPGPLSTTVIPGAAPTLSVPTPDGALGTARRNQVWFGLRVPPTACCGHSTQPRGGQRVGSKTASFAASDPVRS
Text: as §3

[12] = target: T9, WNK3 (Homo sapiens, UniProt Q9BYP7); assay: KINOMEScan; assay type: binding; settings: WNK3, 1 µM; read-out: Percent Control
T9 construct: purchased Eurofins DiscoverX
T9 sequence (Q9BYP7 whole entry): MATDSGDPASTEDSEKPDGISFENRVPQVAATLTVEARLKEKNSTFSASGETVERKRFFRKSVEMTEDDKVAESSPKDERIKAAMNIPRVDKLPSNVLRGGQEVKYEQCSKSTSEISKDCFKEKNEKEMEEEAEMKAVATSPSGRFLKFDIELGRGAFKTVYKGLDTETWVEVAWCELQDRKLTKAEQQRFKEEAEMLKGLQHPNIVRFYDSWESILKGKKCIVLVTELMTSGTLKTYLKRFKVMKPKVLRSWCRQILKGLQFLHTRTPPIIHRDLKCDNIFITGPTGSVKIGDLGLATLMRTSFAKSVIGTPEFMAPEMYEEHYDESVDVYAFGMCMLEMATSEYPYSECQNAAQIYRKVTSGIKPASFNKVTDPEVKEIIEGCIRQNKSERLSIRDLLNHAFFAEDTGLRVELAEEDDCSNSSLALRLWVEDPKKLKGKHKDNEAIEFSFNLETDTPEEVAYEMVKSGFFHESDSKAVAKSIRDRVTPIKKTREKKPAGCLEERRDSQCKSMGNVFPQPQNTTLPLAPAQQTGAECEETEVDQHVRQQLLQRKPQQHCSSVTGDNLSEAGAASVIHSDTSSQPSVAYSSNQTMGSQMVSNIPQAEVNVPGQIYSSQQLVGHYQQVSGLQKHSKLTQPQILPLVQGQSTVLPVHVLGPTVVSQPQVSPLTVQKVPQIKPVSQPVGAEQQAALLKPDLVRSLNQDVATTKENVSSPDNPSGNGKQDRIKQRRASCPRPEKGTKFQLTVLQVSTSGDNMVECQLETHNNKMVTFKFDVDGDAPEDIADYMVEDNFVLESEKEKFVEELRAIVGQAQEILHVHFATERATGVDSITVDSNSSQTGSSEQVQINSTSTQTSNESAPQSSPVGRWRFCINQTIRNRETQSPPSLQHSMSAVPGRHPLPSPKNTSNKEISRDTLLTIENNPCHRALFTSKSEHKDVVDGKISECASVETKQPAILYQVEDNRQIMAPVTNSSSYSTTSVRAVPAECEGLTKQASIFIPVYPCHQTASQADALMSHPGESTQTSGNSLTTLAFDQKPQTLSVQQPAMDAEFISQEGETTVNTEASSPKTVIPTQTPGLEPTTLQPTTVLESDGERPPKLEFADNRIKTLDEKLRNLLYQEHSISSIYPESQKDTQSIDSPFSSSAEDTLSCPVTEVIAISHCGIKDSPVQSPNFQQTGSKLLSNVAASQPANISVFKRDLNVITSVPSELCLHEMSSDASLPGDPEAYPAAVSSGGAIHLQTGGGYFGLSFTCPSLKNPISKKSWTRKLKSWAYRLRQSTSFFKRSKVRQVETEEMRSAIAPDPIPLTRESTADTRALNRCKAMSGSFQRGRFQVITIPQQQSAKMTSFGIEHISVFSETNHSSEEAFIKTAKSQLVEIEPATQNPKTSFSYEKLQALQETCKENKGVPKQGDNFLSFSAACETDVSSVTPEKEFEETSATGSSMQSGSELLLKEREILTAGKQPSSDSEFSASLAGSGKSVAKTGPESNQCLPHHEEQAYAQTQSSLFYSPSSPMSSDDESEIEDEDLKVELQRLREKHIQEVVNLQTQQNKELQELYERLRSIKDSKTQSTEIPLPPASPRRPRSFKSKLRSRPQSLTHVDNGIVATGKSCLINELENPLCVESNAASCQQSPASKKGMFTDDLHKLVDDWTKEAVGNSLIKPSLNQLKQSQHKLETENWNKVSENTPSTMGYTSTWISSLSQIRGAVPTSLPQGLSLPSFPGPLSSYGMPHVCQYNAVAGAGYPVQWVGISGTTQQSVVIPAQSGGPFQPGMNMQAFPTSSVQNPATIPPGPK
Text: as §3

[13] = target: T10, ACVR1B (Homo sapiens, UniProt P36896); assay: KINOMEScan; assay type: binding; settings: read-out: Percent Control
T10 construct: purchased Eurofins DiscoverX
T10 sequence (P36896 24-505): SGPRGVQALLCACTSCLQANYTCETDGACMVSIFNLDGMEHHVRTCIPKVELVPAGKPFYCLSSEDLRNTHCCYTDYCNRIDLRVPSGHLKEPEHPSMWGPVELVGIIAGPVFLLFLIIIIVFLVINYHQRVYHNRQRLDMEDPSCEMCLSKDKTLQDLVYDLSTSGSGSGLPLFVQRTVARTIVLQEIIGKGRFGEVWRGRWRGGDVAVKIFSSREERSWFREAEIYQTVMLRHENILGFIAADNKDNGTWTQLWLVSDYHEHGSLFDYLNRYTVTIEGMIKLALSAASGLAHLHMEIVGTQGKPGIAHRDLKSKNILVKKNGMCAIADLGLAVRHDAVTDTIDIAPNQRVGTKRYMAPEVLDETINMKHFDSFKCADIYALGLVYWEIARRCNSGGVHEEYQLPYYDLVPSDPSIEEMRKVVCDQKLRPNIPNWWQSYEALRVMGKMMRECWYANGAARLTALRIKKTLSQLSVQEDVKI
Text: as §3

[14] = CYP2D6 IC50, human hepatocytes, pre-incubation 30 min
[15] = female, BALB/c nude, plasma, Mouse 3 mg/kg (IV)
[16] = female, BALB/c nude, plasma, Mouse 30 mg/kg (PO)

## COc1cc2ncnc(Nc3cccc(Cl)c3F)c2cc1OCCON1CCN(C)CC1 [Compound 9, N-(3-Chloro-2-fluorophenyl)-7-methoxy-6-(2-((4-methylpiperazin-1-yl)oxy)ethoxy)quinazolin-4-amine]
[1]
  remaining binding at 1 µM: 91%
[2]; [14]
  IC50: 4.75 µM
  IC50 at 5 min: 4.73 µM
[2]; 0 min
  Inhibition percentage(%) at Top conc.: 63.41%
[2]; 30 min
  Inhibition percentage(%) at Top conc.: 66.54%
[2]; CYP2D6 IC50, human hepatocytes, pre-incubation 0 min
  IC50 at 5 min: 4.57 µM
[3]
  remaining binding at 1 µM: 100%
[4]
  remaining binding at 1 µM: 85%
[5]; 30 mg/kg PO, BALB/c nude mice
  plasma level at the 24 h time point: no compound was detected
[5]; [15]
  clearance: 58.6 ± 8.7 mL/min/kg
  half-life at 24 h: 1.67 ± 0.12 h
[5]; female, BALB/c nude, plasma, Mouse 3 mg/kg (IV), read-out: Vss
  Vd at 24 h: 4.68 ± 0.54 L/kg
[5]; [16]
  Cmax at 24 h: 2180 ± 66 nM
  Tmax at 24 h: 0.42 ± 0.14 h
  bioavailability at 24 h: 61%
  half-life at 24 h: 1.84 ± 0.62 h
[6]
  remaining binding at 1 µM: 82%
[7]; 21-day treatment window
  mean body weight loss: ≤ 10%
[7]; 21 days
  adverse clinical events: no adverse clinical events were observed
[7]; 21 days, P = 0.0059
  intracranial tumor response relative to vehicle control (bioluminescence): profound tumor regression
[8]
  Kd: 0.087 µM
[9]
  Kd: 0.18 µM
[10]
  remaining binding at 1 µM: 99%
[11]
  remaining binding at 1 µM: 94%
[12]
  remaining binding at 1 µM: 94%
[13]
  remaining binding at 1 µM: 86%
